Consider six molecules from patent US5286860A (priority 1992, dated 1994).

The target in one assay is GABAa receptor. The experiment in a line: GABAa receptor binding assay: inhibition of 3H-RO15-1788 (3H-Flumazenil) binding to rat cortical tissue. The conditions noted are these: 0.5 nM 3H-RO15-1788, 30 min at 4° C., nonspecific binding with 1.0 μM diazepam. The method, then:
The pharmaceutical utility of compounds of this invention are indicated by the following assay for GABAa receptor activity.
Assays are carried out as described in Thomas and Tallman (J. Bio. Chem. 156: 9838-9842, J. Neurosci. 3:433-440, 1983). Rat cortical tissue is dissected and homogenized in 25 volumes (w/v) of 0.05M Tris HCl buffer (pH 7.4 at 4° C.). The tissue homogenate is centrifuged in the cold (4°) at 20,000×g for 20'. The supernatant is decanted and the pellet is rehomogenized in the same volume of buffer and again centrifuged at 20,000×g. The supernatant is decanted and the pellet is frozen at -20° C. overnight. The pellet is then thawed and rehomogenized in 25 volume (original wt/vol) of buffer and the procedure is carried out twice. The pellet is finally resuspended in 50 volumes (w/vol of 0.05M Tris HCl buffer (pH 7.4 at […]).
Incubations contain 100 μl of tissue homogenate, 100 μl of radioligand 0.5 nM (^3 H-RO15-1788 [^3 H-Flumazenil] specific activity 80 Ci/mmol), drug or blocker and buffer to a total volume of 500 μl. Incubations are carried for 30 min at 4° C. then are rapidly filtered through GFB filters to separate free and bound ligand. Filters are washed twice with fresh 0.05M Tris HCl buffer (pH 7.4 at 4° C.) and counted in a liquid scintillation counter. 1.0 μM diazepam is added to some tubes to determine nonspecific binding. Data are collected in triplicate determinations, averaged and % inhibition of total specific binding is calculated. Total Specific Binding=Total-Nonspecific. In some cases, the amounts of unlabeled drugs is varied and total displacement curves of binding are carried out. Data are converted to a form for the calculation of IC50 and Hill Coefficient (nH).

For assay [1], the system named is benzodiazepine binding site. Conditions: cited from earlier work.

For `COc1ccc(-c2cnc3[nH]c4c(c3n2)CCCC4)c(F)c1` [Compound 11, 2-(2-Fluoro-4-methoxyphenyl)-6,7,8,9-tetrahydro-5H-indolo[2,3-b]pyrazine], the half-inhibitory concentration (IC50) (as a rule, the concentration that inhibits the measured activity by half) on GABAa receptor came to 29 nM. In other words, the double-digit nanomolar range.

With `CN1CCc2cc3c(cc2[C@H]1[C@@H]1OC(=O)c2c1ccc1c2OCO1)OCO3` [(+) bicuculline], in assay [1], the “block of GABA-agonist enhancement of benzodiazepine binding” value is recorded as “blocked”. Molecule `COc1ccc(F)c(-c2cnc3[nH]c4c(c3n2)CCCC4)c1` [Compound 1, 2-(2-Fluoro-5-methoxyphenyl)-6,7,8,9-tetrahydro-5H-indolo[2,3-b]pyrazine] came in with an IC50 on GABAa receptor of 200 nM.

On to `CN1CCc2cc3c(cc2[C@@H]1[C@H]1OC(=O)c2c1ccc1c2OCO1)OCO3` [(-) bicuculline], for which the “block of GABA-agonist enhancement of benzodiazepine binding” value in assay [1] was “much less active”. For the molecule `Fc1ccccc1-c1cnc2[nH]c3c(c2n1)CCCC3` [Compound 5, 2-(2-Fluorophenyl)-6,7,8,9-tetrahydro-5H-indolo[2,3-b]pyrazine], the IC50 on GABAa receptor was determined as 45 nM. This lies in the double-digit nanomolar range. Same read-out and setting: in the case of `COc1ccc(-c2cnc3[nH]c4ccccc4c3n2)c(F)c1` [Compound 12, 2-(2-Fluoro-4-methoxyphenyl)-5H-indolo[2,3-b]pyrazine] it was 533 nM.
